# Literature values in patent publication US7897820B2, “Process for preparing erianin” (Zhe Jiang Cell Biomedical Research Co., Ltd., priority 2005, dated 2011).
# Assays:
# tumor cell strain K256 = conditions: among dihydrobibenzyls and phenanthrenes in Dendrobium chrysotoxum
# [1] = tested on: human leukemia HL-60 cells
# microtubulin = conditions: target is the microtubulin in the cell
# [2] = compared with 5FU
smiles,measurement,setting,value
"COc1ccc(CCc2cc(OC)c(OC)c(OC)c2)cc1O [Erianin, 2-methoxyl-5-[2-(3,4,5-trimethoxyphenyl)]ethyl phenol]",tumor inhibitory rate,liver cancer of mouse,50.82%
same,inhibitory effect on the growth of tumor cell strain K256,tumor cell strain K256,most active
same,inhibition of growth of human leukemia HL-60 cells,[1],significantly inhibited the growth
same,effect on polymerizing of microtubulin,microtubulin,inhibit the polymerizing of microtubulin
same,side effect,[2],far lower then 5FU
